Measured values: US10011607B2, “Ethynyl derivatives” (Hoffmann-La Roche Inc., priority 2015, dated 2018)

Biological target: human mGlu4 receptor (Homo sapiens (Human), UniProt Q14833)
Assay: Ca2+ mobilization in vitro assay on recombinant human mGlu4 expressed in HEK293 cells (PAM)
Assay type: cell-based
Conditions: for Emax: HEK293, maximal response in % of maximal stimulatory effect of saturating L-AP4, read-out: Eff. (%); for EC50: HEK293 cells, human mGlu4, in presence of EC20 of L-AP4, read-out: EC50 (nM) mGlu4PAM
Excerpt: FIG. 1: Illustrates the experimental outline for mGlu4 PAM Ca^2+ mobilization screening assay and the determination of EC50 and % Emax values. […] A depression of the signal observed after addition of the EC20 concentration of L-AP4 was indicative of an inhibitory activity of the test compound.
Determination of EC50 Values Using a Ca2+ Mobilization In Vitro Assay on Recombinant Human mGlu4 Expressed in HEK293 Cells:
A monoclonal HEK-293 cell line stably transfected with a cDNA encoding for the human mGlu4 receptor was generated; for the work with mGlu4 Positive Allosteric Modulators (PAMs), a cell line with low receptor expression levels and low constitutive receptor activity was selected to allow the differentiation of agonistic versus PAM activity. Cells were cultured according to standard protocols (Freshney, 2000) in Dulbecco's Modified Eagle Medium with high glucose supplemented with 1 mM glutamine, 10% (vol/vol) heat-inactivated bovine calf serum, Penicillin/Streptomycin, 50 μg/ml hygromycin and 15 μg/ml blasticidin (all cell culture reagents and antibiotics from Invitrogen, Basel, Switzerland).
About 24 hrs before an experiment, 5×10^4 cells/well were seeded in poly-D-lysine coated, black/clear-bottomed 96-well plates. The cells were loaded with 2.5 μM Fluo-4AM in loading buffer (1×HBSS, 20 mM HEPES) for 1 hr at 37° C. and washed five times with loading buffer. The cells were transferred into a Functional Drug Screening System 7000 (Hamamatsu, Paris, France), and 11 half logarithmic serial dilutions of test compound at 37° C. were added and the cells were incubated for 10-30 min. with on-line recording of fluorescence. Following this pre-incubation step, the agonist (2S)-2-amino-4-phosphonobutanoic acid (L-AP4) was added to the cells at a concentration corresponding to EC20 with on-line recording of fluorescence; in order to account for day-to-day variations in the responsiveness of cells, the EC20 of L-AP4 was determined immediately ahead of each experiment by recording of a full dose-response curve of L-AP4.
Responses were measured as peak increase in fluorescence minus basal (i.e. fluorescence without addition of L-AP4), normalized to the maximal stimulatory effect obtained with saturating concentrations of L-AP4. Graphs were plotted with the % maximal stimulatory using XLfit, a curve fitting program that iteratively plots the data using Levenburg Marquardt algorithm. The single site competition analysis equation used was y=A+((B−A)/(1+((x/C)D))), where y is the % maximal stimulatory effect, A is the minimum y, B is the maximum y, C is the EC50, x is the log 10 of the concentration of the competing compound and D is the slope of the curve (the Hill Coefficient). From these curves the EC50 (drug concentration at which 50% of the maximal receptor activation was achieved), the Hill coefficient as well as the maximal response in % of the maximal stimulatory effect obtained with saturating concentrations of L-AP4 were calculated (see FIG. 1).

human mGlu4 receptor, sequence (Q14833 33-912): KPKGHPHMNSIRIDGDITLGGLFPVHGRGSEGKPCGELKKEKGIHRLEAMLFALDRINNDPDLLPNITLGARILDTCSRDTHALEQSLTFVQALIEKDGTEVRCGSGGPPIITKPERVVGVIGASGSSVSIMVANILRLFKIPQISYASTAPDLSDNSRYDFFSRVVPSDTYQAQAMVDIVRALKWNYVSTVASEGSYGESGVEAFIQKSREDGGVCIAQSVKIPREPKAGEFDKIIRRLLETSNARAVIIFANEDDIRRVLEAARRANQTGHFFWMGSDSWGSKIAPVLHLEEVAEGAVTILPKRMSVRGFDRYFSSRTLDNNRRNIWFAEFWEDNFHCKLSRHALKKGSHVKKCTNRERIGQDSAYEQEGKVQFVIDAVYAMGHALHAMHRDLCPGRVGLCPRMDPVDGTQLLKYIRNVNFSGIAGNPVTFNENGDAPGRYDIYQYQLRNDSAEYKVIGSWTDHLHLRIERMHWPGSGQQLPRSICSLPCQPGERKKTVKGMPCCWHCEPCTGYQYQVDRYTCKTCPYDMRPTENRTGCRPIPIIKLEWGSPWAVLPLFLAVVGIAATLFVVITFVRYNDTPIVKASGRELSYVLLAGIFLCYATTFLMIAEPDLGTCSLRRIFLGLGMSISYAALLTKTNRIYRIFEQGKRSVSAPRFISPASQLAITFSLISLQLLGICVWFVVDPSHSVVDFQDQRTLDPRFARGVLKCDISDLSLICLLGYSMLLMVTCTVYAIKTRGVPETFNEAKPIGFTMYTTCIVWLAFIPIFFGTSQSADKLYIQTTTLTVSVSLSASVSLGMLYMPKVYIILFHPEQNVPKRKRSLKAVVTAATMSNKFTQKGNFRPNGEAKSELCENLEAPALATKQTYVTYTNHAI

Structure (SMILES) | Emax [%] | EC50 [nM]
Cc1ccc(CN2CCN3C(=O)N(c4c(F)cc(C#Cc5ccccc5)cc4F)C(=O)CC3(C)C2=O)cc1 (racemic) [Example 84, (9aRS)-7-[2,6-difluoro-4-(2-phenylethynyl)phenyl]-9a-methyl-2-(p-tolylmethyl)-4,9-dihydro-3H-pyrazino[1,2-c]pyrimidine-1,6,8-trione] | 87 | 117
Cc1ccccc1CN1CCN2C(=O)N(c3c(F)cc(C#Cc4ccccc4)cc3F)C(=O)CC2(C)C1=O (racemic) [Example 85, (9aRS)-7-[2,6-difluoro-4-(2-phenylethynyl)phenyl]-9a-methyl-2-(o-tolylmethyl)-4,9-dihydro-3H-pyrazino[1,2-c]pyrimidine-1,6,8-trione] | 83 | 205
Cc1cccc(C)c1CN1CCN2C(=O)N(c3c(F)cc(C#Cc4ccccc4)cc3F)C(=O)CC2(C)C1=O (racemic) [Example 86, (9aRS)-7-[2,6-difluoro-4-(2-phenylethynyl)phenyl]-2-[(2,6-dimethylphenyl)methyl]-9a-methyl-4,9-dihydro-3H-pyrazino[1,2-c]pyrimidine-1,6,8-trione] | 118 | 68
CC12CC(=O)N(c3c(F)cc(C#Cc4ccccc4)cc3F)C(=O)N1CCN(Cc1ccccc1Cl)C2=O (racemic) [Example 87, (9aRS)-2-[(2-chlorophenyl)methyl]-7-[2,6-difluoro-4-(2-phenylethynyl)phenyl]-9a-methyl-4,9-dihydro-3H-pyrazino[1,2-c]pyrimidine-1,6,8-trione] | 131 | 87
CC12CC(=O)N(c3c(F)cc(C#Cc4ccccc4)cc3F)C(=O)N1CCN(Cc1cccc(Cl)c1)C2=O (racemic) [Example 88, (9aRS)-2-[(3-chlorophenyl)methyl]-7-[2,6-difluoro-4-(2-phenylethynyl)phenyl]-9a-methyl-4,9-dihydro-3H-pyrazino[1,2-c]pyrimidine-1,6,8-trione] | 134 | 73
CC12CC(=O)N(c3c(F)cc(C#Cc4ccccc4)cc3F)C(=O)N1CCN(Cc1ccccn1)C2=O (racemic) [Example 92, (9aRS)-7-[2,6-difluoro-4-(2-phenylethynyl)phenyl]-9a-methyl-2-(2-pyridylmethyl)-4,9-dihydro-3H-pyrazino[1,2-c]pyrimidine-1,6,8-trione] | 91 | 198
CC12CC(=O)N(c3c(F)cc(C#Cc4ccccc4)cc3F)C(=O)N1CCN(Cc1cccnc1)C2=O (racemic) [Example 93, (9aRS)-7-[2,6-difluoro-4-(2-phenylethynyl)phenyl]-9a-methyl-2-(3-pyridylmethyl)-4,9-dihydro-3H-pyrazino[1,2-c]pyrimidine-1,6,8-trione] | 90 | 217
CC12CC(=O)N(c3c(F)cc(C#Cc4ccccc4)cc3F)C(=O)N1CCN(Cc1ccncc1)C2=O (racemic) [Example 94, (9aRS)-7-[2,6-difluoro-4-(2-phenylethynyl)phenyl]-9a-methyl-2-(4-pyridylmethyl)-4,9-dihydro-3H-pyrazino[1,2-c]pyrimidine-1,6,8-trione] | 84 | 127
CC12CC(=O)N(c3c(F)cc(C#Cc4ccccc4)cc3F)C(=O)N1CCN(Cc1ccncn1)C2=O (racemic) [Example 95, (9aRS)-7-[2,6-difluoro-4-(2-phenylethynyl)phenyl]-9a-methyl-2-(pyrimidin-4-ylmethyl)-4,9-dihydro-3H-pyrazino[1,2-c]pyrimidine-1,6,8-trione] | 96 | 142
Cn1cc(CN2CCN3C(=O)N(c4c(F)cc(C#Cc5ccccc5)cc4F)C(=O)CC3(C)C2=O)cn1 (racemic) [Example 96, (9aRS)-7-[2,6-difluoro-4-(2-phenylethynyl)phenyl]-9a-methyl-2-[(1-methylpyrazol-4-yl)methyl]-4,9-dihydro-3H-pyrazino[1,2-c]pyrimidine-1,6,8-trione] | 151 | 214
COCC12CC(=O)N(c3c(F)cc(C#Cc4ccccc4)cc3F)C(=O)N1CCN(c1cccnc1)C2=O (racemic) [Example 102, (9aRS)-7-[2,6-difluoro-4-(2-phenylethynyl)phenyl]-9a-(methoxymethyl)-2-(3-pyridyl)-4,9-dihydro-3H-pyrazino[1,2-c]pyrimidine-1,6,8-trione] | 136 | 129
COCC12CC(=O)N(c3c(F)cc(C#Cc4ccccc4)cc3F)C(=O)N1CCN(c1cnn(C)c1)C2=O (racemic) [Example 104, (9aRS)-7-[2,6-difluoro-4-(2-phenylethynyl)phenyl]-9a-(methoxymethyl)-2-(1-methylpyrazol-4-yl)-4,9-dihydro-3H-pyrazino[1,2-c]pyrimidine-1,6,8-trione] | 148 | 273
CC12CC(=O)N(c3ccc(C#Cc4ccccc4)cc3F)C(=O)N1CCN(c1cccnc1)C2=O (racemic) [Example 108, (9aRS)-7-[2-fluoro-4-(2-phenylethynyl)phenyl]-9a-methyl-2-(3-pyridyl)-4,9-dihydro-3H-pyrazino[1,2-c]pyrimidine-1,6,8-trione] | 103 | 267
C[C@@]12CC(=O)N(c3c(F)cc(C#Cc4ccccc4)cc3F)C(=O)N1CCN(c1ccccn1)C2=O [Example 5, (9aS)-7-[2,6-difluoro-4-(2-phenylethynyl)phenyl]-9a-methyl-2-(2-pyridyl)-4,9-dihydro-3H-pyrazino[1,2-c]pyrimidine-1,6,8-trione] | 92 | 46
C[C@@]12CC(=O)N(c3c(F)cc(C#Cc4ccccc4)cc3F)C(=O)N1CCN(c1cccnc1)C2=O [Example 7, (9aS)-7-[2,6-difluoro-4-(2-phenylethynyl)phenyl]-9a-methyl-2-(3-pyridyl)-4,9-dihydro-3H-pyrazino[1,2-c]pyrimidine-1,6,8-trione] | 126 | 73
C[C@@]12CC(=O)N(c3c(F)cc(C#Cc4ccccc4)cc3F)C(=O)N1CCN(c1ccncc1)C2=O [Example 9, (9aS)-7-[2,6-difluoro-4-(2-phenylethynyl)phenyl]-9a-methyl-2-(4-pyridyl)-4,9-dihydro-3H-pyrazino[1,2-c]pyrimidine-1,6,8-trione] | 85 | 29
Cc1ccnc(N2CCN3C(=O)N(c4c(F)cc(C#Cc5ccccc5)cc4F)C(=O)C[C@@]3(C)C2=O)c1 [Example 13, (9aS)-7-[2,6-difluoro-4-(2-phenylethynyl)phenyl]-9a-methyl-2-(4-methyl-2-pyridyl)-4,9-dihydro-3H-pyrazino[1,2-c]pyrimidine-1,6,8-trione] | 148 | 131
Cc1cncc(N2CCN3C(=O)N(c4c(F)cc(C#Cc5ccccc5)cc4F)C(=O)C[C@@]3(C)C2=O)c1 [Example 15, (9aS)-7-[2,6-difluoro-4-(2-phenylethynyl)phenyl]-9a-methyl-2-(5-methyl-3-pyridyl)-4,9-dihydro-3H-pyrazino[1,2-c]pyrimidine-1,6,8-trione] | 90 | 152
Cc1cncc(C)c1N1CCN2C(=O)N(c3c(F)cc(C#Cc4ccccc4)cc3F)C(=O)C[C@@]2(C)C1=O [Example 17, (9aS)-7-[2,6-difluoro-4-(2-phenylethynyl)phenyl]-2-(3,5-dimethyl-4-pyridyl)-9a-methyl-4,9-dihydro-3H-pyrazino[1,2-c]pyrimidine-1,6,8-trione] | 136 | 201
C[C@@]12CC(=O)N(c3c(F)cc(C#Cc4ccccc4)cc3F)C(=O)N1CCN(c1ccnc(Cl)c1)C2=O [Example 19, (9aS)-2-(2-chloro-4-pyridyl)-7-[2,6-difluoro-4-(2-phenylethynyl)phenyl]-9a-methyl-4,9-dihydro-3H-pyrazino[1,2-c]pyrimidine-1,6,8-trione] | 100 | 69
C[C@@]12CC(=O)N(c3c(F)cc(C#Cc4ccccc4)cc3F)C(=O)N1CCN(c1ccc(Cl)nc1)C2=O [Example 21, (9aS)-2-(6-chloro-3-pyridyl)-7-[2,6-difluoro-4-(2-phenylethynyl)phenyl]-9a-methyl-4,9-dihydro-3H-pyrazino[1,2-c]pyrimidine-1,6,8-trione] | 142 | 73
